The source made the active and inactive calls.
Columns and labels:
[1] = biological target: T1, Corticotropin-releasing factor receptor 2/Corticotropin-releasing factor-binding protein (Homo sapiens, UniProt P24387+Q13324); assay: Dose Response confirmation of uHTS hits for small molecule antagonists of the CRF-binding protein and CRF-R2 receptor complex.; type: functional; settings: read-out: IC50_Mean
T1 sequence (Q13324 whole entry): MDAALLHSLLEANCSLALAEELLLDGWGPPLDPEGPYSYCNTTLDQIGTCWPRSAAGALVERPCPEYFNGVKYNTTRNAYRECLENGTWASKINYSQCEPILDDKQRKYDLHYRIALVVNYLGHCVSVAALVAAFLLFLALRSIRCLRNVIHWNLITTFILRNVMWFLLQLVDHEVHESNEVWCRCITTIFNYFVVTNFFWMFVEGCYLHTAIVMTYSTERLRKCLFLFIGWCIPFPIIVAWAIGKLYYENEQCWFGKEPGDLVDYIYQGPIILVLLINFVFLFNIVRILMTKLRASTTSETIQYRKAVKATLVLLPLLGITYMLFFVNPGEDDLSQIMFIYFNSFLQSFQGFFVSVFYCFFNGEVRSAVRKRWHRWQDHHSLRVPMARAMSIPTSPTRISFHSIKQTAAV
T1 sequence (P24387 whole entry): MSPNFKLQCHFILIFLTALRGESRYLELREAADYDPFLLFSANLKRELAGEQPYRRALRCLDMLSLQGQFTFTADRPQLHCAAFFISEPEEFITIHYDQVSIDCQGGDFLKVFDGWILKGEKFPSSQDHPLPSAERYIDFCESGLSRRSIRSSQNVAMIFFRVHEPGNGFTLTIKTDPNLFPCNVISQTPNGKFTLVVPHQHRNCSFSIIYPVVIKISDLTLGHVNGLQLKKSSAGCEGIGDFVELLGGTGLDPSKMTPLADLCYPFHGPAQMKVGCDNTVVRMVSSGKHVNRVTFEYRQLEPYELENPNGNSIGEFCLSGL

[2] = biological target: T1, Corticotropin-releasing factor receptor 2/Corticotropin-releasing factor-binding protein; assay: activators of CRF receptor 2 with binding protein – uHTS hits, confirmation (AID 602473); type: functional; settings: read-out: EC50_Mean
Cytochrome P450 3A4 = Cytochrome P450 3A4 (Homo sapiens, UniProt P08684);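 note: CYP3A4 tested as one member of a cytochrome P450 panel screen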
Chain of Cytochrome P450 3A4 (P08684 whole entry): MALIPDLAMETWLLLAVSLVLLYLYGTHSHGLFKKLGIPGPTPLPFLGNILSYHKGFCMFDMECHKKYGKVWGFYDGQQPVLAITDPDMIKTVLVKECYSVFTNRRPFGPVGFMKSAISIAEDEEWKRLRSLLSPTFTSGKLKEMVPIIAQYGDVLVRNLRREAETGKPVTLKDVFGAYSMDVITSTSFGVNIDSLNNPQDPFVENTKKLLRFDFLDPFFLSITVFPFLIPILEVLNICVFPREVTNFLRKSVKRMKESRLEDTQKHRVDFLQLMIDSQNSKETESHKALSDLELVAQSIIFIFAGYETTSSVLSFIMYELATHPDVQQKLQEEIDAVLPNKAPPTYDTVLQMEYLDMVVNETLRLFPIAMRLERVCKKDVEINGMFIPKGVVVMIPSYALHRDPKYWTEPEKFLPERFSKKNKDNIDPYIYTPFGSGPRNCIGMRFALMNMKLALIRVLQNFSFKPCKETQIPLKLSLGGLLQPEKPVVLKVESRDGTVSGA

Cytochrome P450 1A2 = biological target: T2, Cytochrome P450 1A2 (Homo sapiens, UniProt P05177);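 note: PubChem cytochrome P450 panel assay, CYP1A2 panel member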
T2 sequence (P05177 whole entry): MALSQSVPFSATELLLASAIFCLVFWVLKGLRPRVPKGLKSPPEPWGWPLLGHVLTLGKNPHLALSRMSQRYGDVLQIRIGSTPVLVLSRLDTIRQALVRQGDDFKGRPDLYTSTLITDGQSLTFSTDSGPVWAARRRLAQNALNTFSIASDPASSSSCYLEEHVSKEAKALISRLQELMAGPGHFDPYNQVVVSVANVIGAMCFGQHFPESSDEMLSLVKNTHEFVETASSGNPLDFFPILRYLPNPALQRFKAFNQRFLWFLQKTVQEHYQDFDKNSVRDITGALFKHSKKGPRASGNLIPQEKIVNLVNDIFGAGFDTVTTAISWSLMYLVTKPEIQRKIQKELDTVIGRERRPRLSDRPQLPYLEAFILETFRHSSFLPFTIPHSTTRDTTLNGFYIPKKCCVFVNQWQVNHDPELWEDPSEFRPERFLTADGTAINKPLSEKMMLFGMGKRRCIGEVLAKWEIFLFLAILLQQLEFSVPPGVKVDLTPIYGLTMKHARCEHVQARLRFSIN

H4 = assay: Luminescence Cell-Based Dose Response HTS to Identify Activators of 5'UTR Stem-Loop Driven Prion Protein mRNA Translation in H4 Neuroglioblastoma Cells. [Related pubchem assays: 1829 (Project Summary), 1814 (Primary HTS)]; type: functional; settings: Homo sapiens
[3] = Luminescence Cell-Based Dose Response HTS to Identify Activators of Luciferase Translation or Activity in H4 […] Cells. [Related pubchem assays: 1829 (Project Summary), 1814 (Primary HTS)]; type: functional
[4] = biological target: T3, Calpain-2 catalytic subunit (Sus scrofa, UniProt P43367); assay: pig calpain II inhibitor potency, dose response, biochemical, fluorogenic peptide substrate (AID 1420); type: functional
T3 sequence (P43367 whole entry): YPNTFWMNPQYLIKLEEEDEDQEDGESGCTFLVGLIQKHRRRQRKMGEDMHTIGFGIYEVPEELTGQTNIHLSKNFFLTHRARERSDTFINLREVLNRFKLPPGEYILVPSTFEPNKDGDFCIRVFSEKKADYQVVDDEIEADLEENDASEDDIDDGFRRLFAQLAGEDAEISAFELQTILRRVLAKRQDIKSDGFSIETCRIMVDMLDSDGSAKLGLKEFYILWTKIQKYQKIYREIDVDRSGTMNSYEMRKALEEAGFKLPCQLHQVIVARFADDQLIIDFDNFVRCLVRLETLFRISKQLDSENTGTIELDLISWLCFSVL

Cytochrome P450 2C19 = Cytochrome P450 2C19 (Homo sapiens, UniProt P33261); assay: Cytochrome panel assay with activity outcomes. Panel member name: p450-cyp2c19 Compounds with AC50 equal or less than 10 uM are considered active; type: functional; settings: read-out: AC50
Chain of Cytochrome P450 2C19 (P33261 whole entry): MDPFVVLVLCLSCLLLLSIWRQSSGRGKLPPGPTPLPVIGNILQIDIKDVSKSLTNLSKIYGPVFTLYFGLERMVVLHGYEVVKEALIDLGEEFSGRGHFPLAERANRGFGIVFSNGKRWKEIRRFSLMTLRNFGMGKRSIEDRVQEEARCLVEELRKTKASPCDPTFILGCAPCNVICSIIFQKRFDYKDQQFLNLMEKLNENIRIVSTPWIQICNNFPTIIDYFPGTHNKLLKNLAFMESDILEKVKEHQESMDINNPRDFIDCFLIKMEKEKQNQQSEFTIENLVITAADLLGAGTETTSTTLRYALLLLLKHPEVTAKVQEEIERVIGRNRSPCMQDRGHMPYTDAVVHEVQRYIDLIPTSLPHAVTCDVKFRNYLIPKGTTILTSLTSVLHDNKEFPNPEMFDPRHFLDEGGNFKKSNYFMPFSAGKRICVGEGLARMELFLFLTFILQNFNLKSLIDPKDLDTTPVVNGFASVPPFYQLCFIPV

[5] = inhibitors of SNCA 5'UTR-driven reporter translation, confirmation, H4 neuroglioma cells, luminescence (AID 1988); type: functional, cell-based
[6] = system: Streptococcus sp. 'group A'; assay: growth inhibition of control SK(-) GAS strain, dose response, counter-screen for streptokinase expression inhibitor project, luminescence, kanamycin, BacTiterGlo, confirmation (AID 1900); type: functional, organism-based
Streptococcus = assay: Group A Streptococcus viability loss, dose response, counter-screen for streptokinase expression inhibitor project, luminescence, BacTiterGlo (AID 1915); type: functional, organism-based;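 note: potency for reduction of bacterial viability or growth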
Streptokinase A = biological target: T4, Streptokinase A (Streptococcus pyogenes serotype M1, UniProt P10520); assay: S. pyogenes streptokinase expression inhibitors, potency, dose response, plasminogen activation absorbance, OD405 (AID 1914); type: functional, Streptococcus pyogenes M1 GAS;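 note: secreted streptokinase activity via plasminogen activation per viability signal from cell pellet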
T4 sequence (P10520 whole entry): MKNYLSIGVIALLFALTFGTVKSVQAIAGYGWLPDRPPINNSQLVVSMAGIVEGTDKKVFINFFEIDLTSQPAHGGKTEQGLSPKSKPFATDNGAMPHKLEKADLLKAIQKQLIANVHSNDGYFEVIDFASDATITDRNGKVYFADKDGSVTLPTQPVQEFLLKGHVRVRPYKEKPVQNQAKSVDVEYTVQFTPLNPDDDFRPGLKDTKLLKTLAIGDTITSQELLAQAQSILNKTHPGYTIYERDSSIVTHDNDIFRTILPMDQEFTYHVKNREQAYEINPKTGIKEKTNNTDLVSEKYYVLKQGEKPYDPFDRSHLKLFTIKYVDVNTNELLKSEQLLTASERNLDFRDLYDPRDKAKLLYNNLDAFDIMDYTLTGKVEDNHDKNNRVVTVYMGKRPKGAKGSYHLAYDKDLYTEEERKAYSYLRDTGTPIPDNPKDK

[7] = inhibitors of firefly luciferase expression or activity, dose response, H4 neuroglioma cells, luminescence (AID 1990); type: functional, cell-based
[8] = Luminescence Cell-Based Dose Response HTS to Identify Inhibitors of 5'UTR Stem-Loop Driven Prion Protein mRNA Translation in H4 Neuroglioblastoma Cells. [Related pubchem assays: 1827 (Project Summary), 1813 (Primary HTS)]; type: functional
Cytochrome P450 2C9 = Cytochrome P450 2C9 (Homo sapiens, UniProt P11712)
Chain of Cytochrome P450 2C9 (P11712 whole entry): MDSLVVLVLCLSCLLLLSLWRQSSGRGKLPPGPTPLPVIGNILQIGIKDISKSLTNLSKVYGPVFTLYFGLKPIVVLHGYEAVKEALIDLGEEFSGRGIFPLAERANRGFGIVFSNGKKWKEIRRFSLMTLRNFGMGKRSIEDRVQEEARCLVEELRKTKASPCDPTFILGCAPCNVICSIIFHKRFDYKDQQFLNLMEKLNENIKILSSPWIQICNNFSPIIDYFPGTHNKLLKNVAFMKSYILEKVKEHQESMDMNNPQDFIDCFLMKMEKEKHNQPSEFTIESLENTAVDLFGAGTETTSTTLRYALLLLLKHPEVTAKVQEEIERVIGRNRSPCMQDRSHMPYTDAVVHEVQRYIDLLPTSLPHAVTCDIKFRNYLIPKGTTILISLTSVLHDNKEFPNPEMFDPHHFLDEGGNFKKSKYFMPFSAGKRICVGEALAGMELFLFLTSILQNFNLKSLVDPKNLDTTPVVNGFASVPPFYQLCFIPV

Structure (SMILES)	IC50 [1]	EC50 [2]	AC50 (Cytochrome P450 3A4)	also measured
COc1ccccc1-n1c(=S)sc2c(=O)n(Cc3ccco3)c(SC)nc21	> 47.1 µM (inactive)	> 53 µM (inactive)		
Cc1cccc(C(=O)N2CCN(c3ccc([N+](=O)[O-])c(NCc4ccco4)c3)CC2)c1			28.2 µM (inconclusive)	
CCNc1ncc2nc(-c3ccc(OC)cc3)c(=O)n(Cc3cccs3)c2n1			7.94 µM (inconclusive)	AC50 (Cytochrome P450 1A2): 0.631 µM (inconclusive)
O=C(Nc1nnc(C2CC2)s1)C1Cc2ccccc2CN1S(=O)(=O)c1ccccc1F (stereo not drawn)				EC50 (H4): > 120 µM (not active); EC50 [3]: 0.123 µM (active)
CS(=O)(=O)N1CCC[C@@]2(CCN(c3ccccn3)C2)C1			20 µM (inconclusive)	
COc1ccc(C(=O)Nc2ccc(S(=O)(=O)NC(C)(C)C)cc2)cc1[N+](=O)[O-]				IC50 [4]: 4.14 µM (not active)
CCS(=O)(=O)NCCc1cc2ccc(C)cc2nc1O			39.8 µM (inconclusive)	AC50 (Cytochrome P450 2C19): 10 µM (inconclusive)
O=[N+]([O-])c1ccc(Cl)cc1Sc1nc2ccccc2o1				EC50 [5]: > 120 µM (not active); EC50 [6]: 2.25 µM (active); EC50 (Streptococcus): 7.26 µM (active); EC50 (Streptokinase A): 6.18 µM (active); EC50 [7]: > 120 µM (not active); EC50 [8]: > 120 µM (not active)
O=C(Oc1ccccc1)N1CCC2(CCCN(c3cccc(-c4ccccc4)c3)C2)CC1			15.8 µM (inconclusive)	
O=C1C[N+]([O-])=Cc2[nH]c3ccccc3c2N1c1ccc([N+](=O)[O-])cc1				IC50 [4]: 4.76 µM (not active)
Cc1ccc2c(CC(=O)NCC(=O)Nc3c(C)cccc3C)coc2c1	> 47.1 µM (inactive)	> 53 µM (inactive)		
Cc1ccc(-c2csc(/C=C3\SC(C)C(=O)N3CC(=O)Nc3ccccc3F)n2)cc1 (stereo not drawn)				IC50 [4]: 10.6 µM (active)
COc1cc(NC(=S)NCCC(c2ccccc2)c2ccccc2)c(OC)cc1Cl	4.69 µM (active)	> 53 µM (inactive)		
CCc1nc(N2CCC3(CC2)OCCO3)c2nnn(Cc3ccccc3Cl)c2n1			15.8 µM (inconclusive)	
Cc1ccccc1CN(C)C(=O)COC(=O)c1ccc2[nH]c(C)c(C)c2c1	> 47.1 µM (inactive)	> 53 µM (inactive)		
CCOC(=O)C1CCCN(S(=O)(=O)c2ccccc2)C1 (stereo not drawn)	> 47.1 µM (inactive)	> 53 µM (inactive)		
CCOCCCN(CC(=O)NC1CCCC1)C(=O)C(=O)Nc1ccc2c(c1)OCCO2	> 47.1 µM (inactive)	> 53 µM (inactive)		
CCN(CC)CCCCCCCCOC(=O)c1cc(OC)c(OC)c(OC)c1			10 µM (inconclusive)	
CCOc1ccc2c(c1)s/c(=N/C(=O)C1CC1)n2C				EC50 (H4): 63.4 µM (active); EC50 [3]: 0.508 µM (active)
Cc1ccc(/N=C/c2nc(/C=C/c3cccc([N+](=O)[O-])c3)oc2O)cc1			3.16 µM (inconclusive)	AC50 (Cytochrome P450 2C9): 17.8 µM (inconclusive); AC50 (Cytochrome P450 1A2): 2 µM (inconclusive); AC50 (Cytochrome P450 2C19): 7.94 µM (inconclusive)

Reference: ChEMBL document CHEMBL1201862, “PubChem BioAssay data set” (2004)
